Columns and labels:
[1] = Water activity measurement (AquaLab Series 4TE); type: physicochemical; conditions: water activity in packaged body with controlled internal relative humidity
Description: The water activity was measured with AquaLab Series 4TE (METER Group Inc.). A sample having a volume of about 5 ml in a sample dish was placed in AquaLab Series 4TE, and the water activity at 25° C. was measured.

[2] = Oxidation stability on storage (QH residual rate by HPLC); type: physicochemical
Description: The weight ratio of reduced coenzyme Q10 to total coenzyme Q10 (namely, reduced coenzyme Q10/(oxidized coenzyme Q10+reduced coenzyme Q10)) is defined as “QH ratio”. The QH ratio was determined by the following HPLC analysis. For the evaluation of oxidation stability, a rate of the change in the QH ratio at the end of the evaluation from that at the beginning of the evaluation was defined as “QH residual rate”, and the QH residual rate determined from the following expression was used as a measure of oxidation stability.
QH residual rate (%)=100×QH ratio at the end of the evaluation/QH ratio at the beginning of the evaluation
• Column: SYMMETRY C18 (manufactured by Waters); 250 mm (length), 4.6 mm (inner diameter) • Mobile phase: C2H5OH: CH3OH=4:3 (v:v) • Detection wavelength: 210 nm • Flow rate: 1 mL/min

[3] = stored 2 weeks at 40° C., 0.2 g in opened state in packaged body of controlled relative humidity (11% or 48%)

Row | Molecule | Water activity [1] | QH residual rate (%) ([2]; stored 4 weeks at 40° C. and relative humidity 75%, 0.2 g in sealed container, internal relative humidity 48%) | QH residual rate (%) ([2]; stored 2 weeks at 40° C. and relative humidity 75%, 0.2 g in sealed container, internal relative humidity 48%) | QH residual rate (%) [2, 3]
1 | COc1c(O)c(C)c(C/C=C(\C)CC/C=C(\C)CC/C=C(\C)CC/C=C(\C)CC/C=C(\C)CC/C=C(\C)CC/C=C(\C)CC/C=C(\C)CC/C=C(\C)CCC=C(C)C)c(O)c1OC [Comparative Example 1, reduced coenzyme Q10] | 0.48 | 82.1% |  | 
2 | COc1c(O)c(C)c(C/C=C(\C)CC/C=C(\C)CC/C=C(\C)CC/C=C(\C)CC/C=C(\C)CC/C=C(\C)CC/C=C(\C)CC/C=C(\C)CC/C=C(\C)CCC=C(C)C)c(O)c1OC [Comparative Example 2, reduced coenzyme Q10] |  |  | 37.2% | 
3 | co-crystal composed of QH and nicotinamide [Comparative Example 3] | 0.48 |  |  | 82.6%
4 | co-crystal composed of QH and nicotinamide [Example 5] | 0.11 |  |  | 94.7%
